Test system: H9 embryonic stem cells
Assay: Microarray analysis of definitive endoderm stage cells on […] or MEFs +/- Wnt-3a (Table VI)
Assay type: cell-based, human
Settings: low serum

Activin A: activin A (a member of the TGFβ superfamily), R&D Systems; 'w/o wnt' in Table VII = 100 ng/ml Activin A without Wnt3a
Intensity (log): neuropilin 1 (on MATRIGEL): −1.623 | Intensity (log): noggin (on MATRIGEL): −1.636 | Intensity (log): splicing factor, arginine serine-rich 5 (on MATRIGEL): 0.7481 | Intensity (log): stanniocalcin 1 (on MATRIGEL): 2.411 | Intensity (log): ESTs (on MATRIGEL, r13): −4.827 | Intensity (log): ESTs (on MATRIGEL, r16): −3.437 | Intensity (log): solute carrier family 16 (monocarboxylic acid transporters), member 3 (on MATRIGEL, r20): −0.06641 | Intensity (log): Homo sapiens solute carrier family 16 (monocarboxylic acid transporters), member 3 (SLC16A3), mRNA (on MATRIGEL, r30): 0.7103 | Intensity (log): ESTs (on MATRIGEL, r49): −0.04716 | Intensity (log): glycophorin B (includes Ss blood group) (on MATRIGEL, r50): −2.852 | Intensity (log): ESTs (on MATRIGEL, r62): −4.936 | Intensity (log): Homo sapiens HNF-3beta mRNA for hepatocyte nuclear factor-3 beta, complete cds (on MATRIGEL, r66): −2.718 | Intensity (log): ESTs (on MATRIGEL, r81): −2.336 | Intensity (log): ESTs (on MATRIGEL, r92): −2.896 | Intensity (log): ESTs (on MATRIGEL, r98): −3.098 | Intensity (log): ESTs (on MATRIGEL, r108): −1.401 | Intensity (log): Homo sapiens phorbolin-like protein MDS019 (MDS019), mRNA (on MATRIGEL, r121): −1.119 | Intensity (log): ESTs (on MATRIGEL, r129): −1.555 | Intensity (log): ESTs (on MATRIGEL, r136): −0.7315 | Intensity (log): ESTs (on MATRIGEL, r137): −2.036 | Intensity (log): ESTs (on MATRIGEL, r142): −0.6486 | Intensity (log): ESTs (on MATRIGEL, r145): −1.782 | Intensity (log): Cluster Incl. AB028021: Homo sapiens HNF-3beta mRNA for hepatocyte nuclear factor-3 beta, complete cds (on MATRIGEL, r165): −1.5339 | Intensity (log): hypothetical protein FLJ23403 (on MATRIGEL, r205): −1.456 | Intensity (log): matrix metalloproteinase 14 (membrane-inserted) (on MATRIGEL, r215): −2.057 | Intensity (log): Homo sapiens glycophorin B (includes Ss blood group) (GYPB), mRNA (on MATRIGEL, r218): −0.9473 | Intensity (log): ESTs (on MATRIGEL, r234): 0.8128 | Intensity (log): ESTs (on MATRIGEL, r240): 1.068 | Intensity (log): ESTs (on MATRIGEL, r241): −1.412 | Intensity (log): KIAA0878 protein (on MATRIGEL, r250): 1.1189 | Intensity (log): ESTs (on MATRIGEL, r260): 1.481 | Intensity (log): Homo sapiens matrix metalloproteinase 14 (membrane-inserted) (MMP14), mRNA (on MATRIGEL, r270): −0.7235 | Intensity (log): ESTs (on MATRIGEL, r278): 0.5216 | Intensity (log): ESTs (on MATRIGEL, r290): 0.3072 | Intensity (log): ESTs (on MATRIGEL, r301): −3.574 | Intensity (log): ESTs (on MATRIGEL, r314): −0.05909 | Intensity (log): Homo sapiens hypothetical protein FLJ23403 (FLJ23403), mRNA (on MATRIGEL, r315): −1.485 | Intensity (log): ESTs (on MATRIGEL, r319): −0.1824 | Intensity (log): Homo sapiens KIAA0878 protein (KIAA0878), mRNA (on MATRIGEL, r332): 2.0265 | Intensity (log): phorbolin-like protein MDS019 (on MATRIGEL, r340): −1.118 | Intensity (log): ESTs (on MATRIGEL, r347): 0.3539 | Intensity (log): ESTs (on MATRIGEL, r376): −0.3497 | Intensity (log): ESTs (on MATRIGEL, r377): −0.9033 | Intensity (log): 6-phosphofructo-2-kinasefructose-2,6-biphosphatase 4 (on MEFS): 1.6 | Intensity (log): ESTs, Highly similar to IHH_HUMAN INDIAN HEDGEHOG PROTEIN PRECURSOR (H. sapiens) (on MEFS): 0.5905 | Intensity (log): ESTs, Moderately similar to JE0284 Mm-1 cell derived transplantability-associated protein 1b (H. sapiens) (on MEFS): 4.222 | Intensity (log): ESTs, Weakly similar to FCE2 MOUSE LOW AFFINITY IMMUNOGLOBULIN EPSILON FC RECEPTOR (M. musculus) (on MEFS): 3.48 | Intensity (log): ESTs, Weakly similar to the 331st table hypothetical protein KIAA0555 (H. sapiens) (on MEFS): 0.4436 | Intensity (log): G protein-coupled receptor (on MEFS): 5.053 | Intensity (log): G protein-coupled receptor 49 (on MEFS): 2.505 | Intensity (log): Homo sapiens Kell blood group (KEL), mRNA (on MEFS): −0.3839 | Intensity (log): Homo sapiens MLL septin-like fusion (MSF), mRNA (on MEFS): −1.5 | Intensity (log): Homo sapiens Mix-like homeobox protein 1 (MILD1) mRNA, complete cds (on MEFS): 0.922 | Intensity (log): Homo sapiens Rho GTPase activating protein 6 (ARHGAP6), transcript variant 2, mRNA (on MEFS): −1.285 | Intensity (log): Homo sapiens TBX3-iso protein (TBX3-iso), mRNA (on MEFS): 1.07 | Intensity (log): Homo sapiens angiopoietin 2 (ANGPT2), mRNA (on MEFS): 0.5968 | Intensity (log): Homo sapiens ankyrin-like with transmembrane domains 1 (ANKTM1), mRNA (on MEFS): 2.819 | Intensity (log): Homo sapiens apolipoprotein A-I (APOA1), mRNA (on MEFS): 2.469 | Intensity (log): Homo sapiens apolipoprotein A-II (APOA2), mRNA (on MEFS): 4.469 | Intensity (log): Homo sapiens arylsulfatase E (chondrodysplasia punctata 1) (ARSE), mRNA (on MEFS): 3.184 | Intensity (log): Homo sapiens atrophin-1 interacting protein 1; activin receptor interacting protein 1 (KIAA0705), mRNA (on MEFS): −1.32 | Intensity (log): Homo sapiens beta-site APP cleaving enzyme (BACE) mRNA, complete cds (on MEFS): 1.754 | Intensity (log): Homo sapiens cDNA FLJ11550 fis, clone HEMBA1002970 (on MEFS): 4.216 | Intensity (log): Homo sapiens cDNA FLJ12993 fis, clone NT2RP3000197 (on MEFS): 2.069 | Intensity (log): Homo sapiens cDNA FLJ13221 fis, clone NT2RP4002075 (on MEFS): 1.31 | Intensity (log): Homo sapiens cardiac ventricular troponin C mRNA, complete cds (on MEFS): 1.4377 | Intensity (log): Homo sapiens cartilage linking protein 1 (CRTL1), mRNA (on MEFS): −0.8052 | Intensity (log): Homo sapiens cell adhesion molecule with homology to L1CAM (close homologue of L1) (CHL1), mRNA (on MEFS): −2.5002 | Intensity (log): Homo sapiens chromosome 19, cosmid R31181 (on MEFS): 0.2239 | Intensity (log): Homo sapiens clone 23736 mRNA sequence (on MEFS): 4.507 | Intensity (log): Homo sapiens cryptic mRNA, complete cds (on MEFS): −0.6735 | Intensity (log): Homo sapiens cystatin S (CST4), mRNA (on MEFS): 3.87 | Intensity (log): Homo sapiens cystatin SA (CST2), mRNA (on MEFS): 2.1671 | Intensity (log): Homo sapiens cystatin SN (CST1), mRNA (on MEFS): 4.64 | Intensity (log): Homo sapiens cytidine deaminase (CDA), mRNA (on MEFS): −1.67 | Intensity (log): Homo sapiens dual specificity phosphatase 4 (DUSP4), mRNA (on MEFS): 4.122 | Intensity (log): Homo sapiens fibroblast growth factor 8 (androgen-induced) (FGF8), mRNA (on MEFS): 0.01583 | Intensity (log): Homo sapiens fibroblast growth factor 17 (FGF17), mRNA (on MEFS): 2.4872 | Intensity (log): Homo sapiens frizzled-related protein (FRZB), mRNA (on MEFS): 3.676 | Intensity (log): Homo sapiens gastrin-releasing peptide (GRP), mRNA (on MEFS): 0.5098 | Intensity (log): Homo sapiens glycophorin E (GYPE), mRNA (on MEFS): −1.501 | Intensity (log): Homo sapiens glycophorin Erik STA (GPErik) gene complete cds (on MEFS): −0.4544 | Intensity (log): Homo sapiens growth differentiation factor 3 (GDF3), mRNA (on MEFS): 2.875 | Intensity (log): Homo sapiens haptoglobin (HP), mRNA (on MEFS): 0.477
